# Tests used:
# Assay type in all cases: cell-based, human
# 22Rv1 cells = assay: Cell proliferation assay (MTS) and trypan blue assay; settings: JQ1 0.25 μM every other day
# Method: CellTiter 96® AQueous One Solution Cell Proliferation Assay (MTS) (Promega) was used to measure cell growth according to the manufacturer's instructions. Briefly, cells were plated in 96-well plates at a density of 2,000 cells per well. At the indicated times, 20 μL of Cell Titer 96R Aqueous One Solution Reagent was added to medium. After incubating for 1 hour at 37° C. in the cell incubator, cell growth was measured in a microplate reader at 490 nm.
# Trypan blue assay was performed to measure cell growth according to the manufacturer's instructions. Briefly, cells were plated in 6-well plates at a density of about 5×10^4 to about 1×10^5 cells per well. At the indicated time points, cells were trypsinized and suspended in 1 mL 1×PBS. 100 μL cells and 100 μL trypan blue solution (Sigma-Aldrich) were mixed, and the number of viable cells was measured using the Bio-Rad automated cell counter.
# [1] = tested on: prostate cancer patient-derived organoid lines; assay: Organoid cell viability assay (2D and 3D); settings: SPOP W131R-expressing organoid compared to two SPOP WT counterparts; 2D and 3D growth
# Method: Organoid cells were obtained from Dr. Yu Chen from MSKCC and cultured according to the methodology as described elsewhere (Drost et al., Nat. Protoc., 11:347-358 (2016)). In brief, organoid cells were imbedded in 40 μL Matrigel each drop and cultured in FBS free DMEM/F12 medium supplied with several growth factors. Cell viability assays were conducted by plating 2,000 organoid cells per well of a collagen coated 96-well cell culture plate in […] media with vehicle (DMSO) control or JQ1 (0.05˜1 μM). Viable cells were counted by using a CellTiter-Glo (Promega) Luminescent Cell Viability Assay Kit.
# DU145 cells = assay: Clonogenic survival (colony formation) assay; settings: JQ1 for 3 days, harvested at day 10
# Method: FIGS. 26A-26I. Determination of the role of DUB3-mediated stabilization of BRD4 in BET inhibitor resistance using both loss of function and gain of function approaches. (FIG. 26A) Western blot analysis of indicated proteins in PC-3 cells infected with lentivirus expressing control or DUB3-specific shRNA for 24 hours and then co-transfected with plasmids for wild-type (WT) and mutants of HA-DUB3 for 24 hours. (FIG. 26B) Western blot analysis of indicated proteins in PC-3 cells infected with lentivirus expressing control or DUB3-specific shRNAs for 24 hours and then co-transfected with the indicated plasmids for 24 hours. Cells were treated with MG132 for 8 hours before harvested. (FIG. 26C) DU145 cells were infected with lentivirus expressing control or DUB3-specific shRNAs. After 48 hours puromycin selection, cells were treated with I-BET (5 μM), PD0332991 (5 μM) or both followed by MTS assay. All data are shown as mean values±SD (n=6). ***P<0.001, n.s., not significant. (FIG. 26D, FIG. 26E) DU145 cells were infected with lentivirus expressing indicated shRNAs and/or plasmids. After 48 hours puromycin selection, cells were treated with JQ1 (2 μM), PD0332991 (5 μM) or both followed by MTS assay (FIG. 26D) and Western blot (FIG. 26E). The quantitative data are shown as mean values±SD (n=6). ***P<0.001, n.s., not significant. (FIG. 26F, FIG. 26G) DU145 cells were infected with lentivirus expressing indicated shRNAs and/or plasmids. After 48 hours puromycin selection, cells were treated with I-BET (5 μM), PD0332991 (5 μM) or both followed by MTS assay (FIG. 26F) and Western blot (FIG. 26G). All data are shown as mean values±SD (n=6). *P<0.05, ***P<0.001, n.s., not significant. (FIG. 26H) DU145 cells were infected with lentivirus expressing control, DUB3 expressing vector and/or control or BRD4-specific shRNAs. After 48 hours puromycin selection, cells were plated for clonogenic survival assay. Cells were treated with a series of JQ1 concentrations for 3 days and harvested at day 10. Colonies with more than 50 cells were counted. IC50 is shown as a dotted line in the middle of the graph. […] OE, overexpression. KD, shRNA-mediated knockdown. (FIG. 26I) DU145 cells were infected with lentivirus as in (FIG. 26H) for 48 hours and then treated with 0.5 μM of JQ1 for 3 days and harvested at day 10. Colonies were photographed and quantified. Data represent means±SEM (n=3); P values were determined by the unpaired two-tailed Student's t-test. *P<0.05, **P<0.01.
# An appropriate number of cells for different dosages of JQ1 were plated onto 6-well plate and treated with JQ1 for three days. After three-day treatment, the medium was changed with fresh medium without drugs for another 8 days. […] Colonies with more than 50 cells were counted. […]
smiles,measurement,setting,value
Cc1sc2c(c1C)C(c1ccc(Cl)cc1)=N[C@@H](CC(=O)OC(C)(C)C)c1nnc(C)n1-2 [JQ1],cell growth,22Rv1 cells; EV-expressing 22Rv1 cells,inhibited growth
same,effect on cell growth,22Rv1 cells; SPOP-F133V-expressing 22Rv1 cells,largely impeded
same,sensitivity of organoid to JQ1,[1],resistant
same,IC50,DU145 cells; DU145 BRD4 KD (shRNA knockdown),278 nM
same,IC50,DU145 cells; DU145 DUB3 OE (overexpression),576 nM
same,IC50,DU145 cells; DU145 DUB3 OE BRD4 KD,297 nM
same,IC50,DU145 cells; DU145 EV (control),421 nM
